pEC50: −log10 of the molar value.
Biological target: human F508del-CFTR (Homo sapiens, UniProt P13569, DEL508-508)
Test: F508del-CFTR cell surface expression (corrector activity), DiscoveRx ß-galactosidase complementation chemiluminescence assay in recombinant U2OS cell line;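 also: U2OS cells co-expressing ProLink-tagged F508del-CFTR and a membrane-anchored enzyme acceptor, where more surface CFTR restores β-galactosidase activity measured by chemiluminescence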
Conditions: for pEC50: EC50, F508del-CFTR cell surface expression, U2OS cells, 16h compound incubation, geomean values; for Emax: U2OS, in relation to Emax of corrector lumacaftor (=100%), arithmetic mean values

human F508del-CFTR, sequence (P13569 with tags, fused parts or gaps DEL508-508): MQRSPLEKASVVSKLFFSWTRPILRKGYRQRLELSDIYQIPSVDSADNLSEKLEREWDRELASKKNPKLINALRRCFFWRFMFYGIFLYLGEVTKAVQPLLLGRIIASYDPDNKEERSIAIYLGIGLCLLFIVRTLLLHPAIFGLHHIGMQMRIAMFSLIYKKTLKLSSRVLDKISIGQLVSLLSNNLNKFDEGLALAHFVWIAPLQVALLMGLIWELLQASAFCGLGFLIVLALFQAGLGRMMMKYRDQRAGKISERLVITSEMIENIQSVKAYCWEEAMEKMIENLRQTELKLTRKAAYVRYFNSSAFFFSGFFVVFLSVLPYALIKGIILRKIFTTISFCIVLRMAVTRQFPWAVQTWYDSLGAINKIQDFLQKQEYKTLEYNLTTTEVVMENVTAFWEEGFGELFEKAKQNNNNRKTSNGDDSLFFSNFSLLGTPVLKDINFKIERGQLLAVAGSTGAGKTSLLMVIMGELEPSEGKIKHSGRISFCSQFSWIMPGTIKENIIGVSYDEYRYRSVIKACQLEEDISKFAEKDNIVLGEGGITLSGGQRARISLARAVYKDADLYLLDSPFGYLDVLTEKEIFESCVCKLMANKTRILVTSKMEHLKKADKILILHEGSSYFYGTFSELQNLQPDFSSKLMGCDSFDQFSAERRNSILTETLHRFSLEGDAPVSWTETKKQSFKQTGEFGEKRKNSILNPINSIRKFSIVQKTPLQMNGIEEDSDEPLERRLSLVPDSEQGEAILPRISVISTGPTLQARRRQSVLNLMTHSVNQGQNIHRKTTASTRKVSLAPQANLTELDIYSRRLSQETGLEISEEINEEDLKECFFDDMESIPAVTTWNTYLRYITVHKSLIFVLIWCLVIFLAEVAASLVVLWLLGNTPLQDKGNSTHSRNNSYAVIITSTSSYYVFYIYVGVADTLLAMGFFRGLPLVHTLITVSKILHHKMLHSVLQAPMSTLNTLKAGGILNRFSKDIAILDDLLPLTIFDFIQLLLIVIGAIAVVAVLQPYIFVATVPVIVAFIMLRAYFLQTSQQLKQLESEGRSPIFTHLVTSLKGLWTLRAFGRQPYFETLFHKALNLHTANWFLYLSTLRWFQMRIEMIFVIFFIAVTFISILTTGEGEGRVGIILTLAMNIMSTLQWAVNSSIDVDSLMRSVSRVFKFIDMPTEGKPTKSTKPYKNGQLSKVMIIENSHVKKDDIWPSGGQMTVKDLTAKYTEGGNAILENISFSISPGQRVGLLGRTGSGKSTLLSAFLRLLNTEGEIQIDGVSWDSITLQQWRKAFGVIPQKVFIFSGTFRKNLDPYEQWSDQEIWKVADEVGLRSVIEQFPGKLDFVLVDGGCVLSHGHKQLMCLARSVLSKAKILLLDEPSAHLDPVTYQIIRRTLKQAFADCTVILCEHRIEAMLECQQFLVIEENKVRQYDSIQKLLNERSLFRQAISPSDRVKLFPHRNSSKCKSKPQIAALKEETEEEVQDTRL

Compound | pEC50 | Emax [%]
COc1cccc(CCNC(=O)[C@@H]2CC(=O)N(C)[C@@H](CC(C)C)C(=O)N3CCN(S(=O)(=O)CCCN4CCOCC4)C[C@@H]3C(=O)N[C@H](Cc3ccccc3)COc3ccc4ccccc4c3C(=O)N2)c1 [Example 730, (4aR,7R,18S,22S)-7-benzyl-22-isobutyl-N-(3-methoxyphenethyl)-21-methyl-3-((3-morpholinopropyl)sulfonyl)-5,16,20,23-tetraoxo-2,3,4,4a,5,6,7,8,16,17,18,19,20,21,22,23-hexadecahydro-1H-naphtho[1,2-p]pyrazino[2,1-f][1]oxa[4,7,10,14]tetraazacycloheptadecine-18-carboxamide] | 6.23 | 248
COc1cccc(CCNC(=O)[C@@H]2CC(=O)N(C)[C@@H](CC(C)C)C(=O)N3CCN(S(C)(=O)=O)C[C@@H]3C(=O)N[C@H](Cc3ccccc3)COc3ccc4ccccc4c3C(=O)N2)c1 [Example 731, (4aR,7R,18S,22S)-7-benzyl-22-isobutyl-N-(3-methoxyphenethyl)-21-methyl-3-(methylsulfonyl)-5,16,20,23-tetraoxo-2,3,4,4a,5,6,7,8,16,17,18,19,20,21,22,23-hexadecahydro-1H-naphtho[1,2-p]pyrazino[2,1-f][1]oxa[4,7,10,14]tetraazacycloheptadecine-18-carboxamide] | 6.42 | 248
COc1cccc(CCNC(=O)[C@@H]2CC(=O)N(C)[C@@H](CC(C)C)C(=O)N3CCN(S(=O)(=O)c4cccc(OC(F)(F)F)c4)C[C@@H]3C(=O)N[C@H](Cc3ccccc3)COc3ccc4ccccc4c3C(=O)N2)c1 [Example 732, (4aR,7R,18S,22S)-7-benzyl-22-isobutyl-N-(3-methoxyphenethyl)-21-methyl-5,16,20,23-tetraoxo-3-((3-(trifluoromethoxy)phenyl)sulfonyl)-2,3,4,4a,5,6,7,8,16,17,18,19,20,21,22,23-hexadecahydro-1H-naphtho[1,2-p]pyrazino[2,1-f][1]oxa[4,7,10,14]tetraazacycloheptadecine-18-carboxamide] | 7.19 | 239
COCCS(=O)(=O)N1CCN2C(=O)[C@H](CC(C)C)N(C)C(=O)C[C@@H](C(=O)NCCc3cccc(OC)c3)NC(=O)c3c(ccc4ccccc34)OC[C@@H](Cc3ccccc3)NC(=O)[C@H]2C1 [Example 733, (4aR,7R,18S,22S)-7-benzyl-22-isobutyl-3-((2-methoxyethyl)sulfonyl)-N-(3-methoxyphenethyl)-21-methyl-5,16,20,23-tetraoxo-2,3,4,4a,5,6,7,8,16,17,18,19,20,21,22,23-hexadecahydro-1H-naphtho[1,2-p]pyrazino[2,1-f][1]oxa[4,7,10,14]tetraazacycloheptadecine-18-carboxamide] | 6.46 | 235
COc1cccc(CCNC(=O)[C@@H]2CC(=O)N(C)[C@@H](CC(C)C)C(=O)N3CCN(S(=O)(=O)C4CCOCC4)C[C@@H]3C(=O)N[C@H](Cc3ccccc3)COc3ccc4ccccc4c3C(=O)N2)c1 [Example 734, (4aR,7R,18S,22S)-7-benzyl-22-isobutyl-N-(3-methoxyphenethyl)-21-methyl-5,16,20,23-tetraoxo-3-((tetrahydro-2H-pyran-4-yl)sulfonyl)-2,3,4,4a,5,6,7,8,16,17,18,19,20,21,22,23-hexadecahydro-1H-naphtho[1,2-p]pyrazino[2,1-f][1]oxa[4,7,10,14]tetraazacycloheptadecine-18-carboxamide] | 6.52 | 325
COc1cccc(CCNC(=O)[C@@H]2CC(=O)N(C)[C@@H](CC(C)C)C(=O)N3CCN(S(=O)(=O)CCN(C)C)C[C@@H]3C(=O)N[C@H](Cc3ccccc3)COc3ccc4ccccc4c3C(=O)N2)c1 [Example 735, (4aR,7R,18S,22S)-7-benzyl-3-((2-(dimethylamino)ethyl)sulfonyl)-22-isobutyl-N-(3-methoxyphenethyl)-21-methyl-5,16,20,23-tetraoxo-2,3,4,4a,5,6,7,8,16,17,18,19,20,21,22,23-hexadecahydro-1H-naphtho[1,2-p]pyrazino[2,1-f][1]oxa[4,7,10,14]tetraazacycloheptadecine-18-carboxamide] | 6.50 | 176

From patent US20240208992A1, “MACROCYCLES AS CFTR MODULATORS” (Idorsia Pharmaceuticals Ltd, priority 2021, published 2024)
